Test results: publication PMC7026480, “Discovery of Multitarget-Directed Ligands Against Influenza A Virus From Compound Yizhihao Through a Predictive System for Compound-Protein Interactions” (Frontiers in Cellular and Infection Microbiology, 2020)
Like-named read-outs stand apart in the source and are kept apart here.

Key:
TNF-α = assay type: cell-based, human; on TNF-α expression in cell culture supernatant in comparison with the model group: test concentration or dose not given here
[1] = target: neuraminidase (NA) of A/PR/8/34 (H1N1) (Influenza A virus, UniProt P03468); assay: biochemical
[2] = tested on: A/Puerto Rico/8/34 (wild-type H1N1); assay: microbe, parasite or virus in culture; assay type: cell-based; settings: Influenza A virus
[3] = tested on: A/Minfang/151/2000 (wild-type H3N2); assay: microbe, parasite or virus in culture; assay type: cell-based; settings: Influenza A virus, H3N2, MDCK
[4] = H1N1 / PR/8, MDCK, read-out: IC50, CPE reduction, A/PR/8/34 (H1N1), Drug administration after virus inoculation
[5] = H1N1 / PR/8, MDCK, read-out: IC50, CPE reduction, A/PR/8/34 (H1N1), Pre-incubation of virus and drug
[6] = H1N1 / PR/8, MDCK, read-out: IC50, CPE reduction, A/PR/8/34 (H1N1), Simultaneous action of virus and drug
[7] = H1N1 / PR/8, MDCK, read-out: IC50, CPE reduction, A/PR/8/34 (H1N1), Virus inoculation after drug administration
[8] = read-out: IC50, CPE reduction, A/Minfang/151/2000 (H3N2), Drug administration after virus inoculation
[9] = read-out: IC50, CPE reduction, A/Minfang/151/2000 (H3N2), Pre-incubation of virus and drug
[10] = read-out: IC50, CPE reduction, A/Minfang/151/2000 (H3N2), Simultaneous action of virus and drug
[11] = read-out: IC50, CPE reduction, A/Minfang/151/2000 (H3N2), Virus inoculation after drug administration
[12] = IC50, NA inhibition test, A/PR/8/34 (H1N1)
[13] = H1N1, MDCK, read-out: IC50, CPE reduction, H1N1 wild-type, in the four modes of action tested
[14] = read-out: IC50, CPE reduction, H3N2 wild-type, in the four modes of action tested

neuraminidase (NA) of A/PR/8/34 (H1N1), sequence (P03468 whole entry, looked up): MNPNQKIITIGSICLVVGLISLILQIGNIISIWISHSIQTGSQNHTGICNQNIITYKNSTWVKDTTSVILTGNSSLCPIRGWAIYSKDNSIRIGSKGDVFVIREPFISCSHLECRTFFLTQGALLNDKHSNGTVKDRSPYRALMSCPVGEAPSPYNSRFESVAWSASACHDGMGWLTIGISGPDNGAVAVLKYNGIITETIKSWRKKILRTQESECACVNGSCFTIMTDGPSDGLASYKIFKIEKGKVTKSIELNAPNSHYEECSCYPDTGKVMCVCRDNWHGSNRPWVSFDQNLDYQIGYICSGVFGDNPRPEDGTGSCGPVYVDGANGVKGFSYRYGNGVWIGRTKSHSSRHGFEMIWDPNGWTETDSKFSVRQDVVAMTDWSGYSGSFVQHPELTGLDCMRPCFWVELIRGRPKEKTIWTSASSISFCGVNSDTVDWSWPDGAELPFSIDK

Compound	TNF-α expression in cell culture supernatant in comparison with the model group (TNF-α)	IC50 [2, 4]	IC50 [2, 5]	IC50 [2, 6]	IC50 [2, 7]	IC50 [3, 8]	IC50 [3, 9]	IC50 [3, 10]	IC50 [3, 11]	further results
C=C(C(=O)O)[C@H]1CC[C@H](C)[C@@H]2CC(=O)C(C)=C2C1 (stereo in doubt) [Rupestonic acid]	significantly less TNF-α									IC50 ([1]; read-out: IC50, NA inhibition test, A/PR/8/34 (H1N1)): > 100 µM
C=CCC(=NOS(=O)(=O)O)S[C@@H]1O[C@H](CO)[C@@H](O)[C@H](O)[C@H]1O (stereo in doubt) [sinigrin]	significantly less TNF-α									
COc1ccc(-c2cc(=O)c3c(O)cc(O)cc3o2)cc1 [Acacetin]		62 ± 5.91 µM	77.4 ± 25.7 µM	> 100 µM	> 100 µM	> 100 µM	12.5 ± 5.46 µM	20.5 ± 0.86 µM	72.5 ± 11.7 µM	
O=c1cc(-c2ccc(O)cc2)oc2cc(O)cc(O)c12 [Apigenin]		> 100 µM	16.7 ± 1.77 µM	9.06 ± 0.41 µM	> 100 µM	> 100 µM	9.28 ± 2.03 µM	15.8 ± 1 µM	> 100 µM	
O=C(/C=C/c1ccc(O)c(O)c1)O[C@@H]1C[C@](O)(C(=O)O)C[C@@H](O)[C@H]1O [Chlorogenic acid]	significantly less TNF-α									IC50 [1, 12]: 64.6 ± 6.97 µM
Cc1cc(O)c2c(c1)C(=O)c1cc(O)cc(O)c1C2=O [Emodin]		> 100 µM	55.9 ± 9.8 µM	6.53 ± 0.29 µM	> 100 µM	> 100 µM	18.2 ± 1.02 µM	55.9 ± 6 µM	> 100 µM	
C=C[C@@H]1CNC(=S)O1 [Epigoitrin]	significantly less TNF-α									IC50 [1]: > 100 µM
O=C1Nc2ccccc2/C1=C1/Nc2ccccc2C1=O [Indirubin]		> 100 µM	> 100 µM	> 100 µM	> 100 µM	> 100 µM	> 100 µM	> 100 µM	52.6 ± 27.4 µM	
O=c1cc(-c2ccc(O)c(O)c2)oc2cc(O)cc(O)c12 [Luteolin]	significantly less TNF-α	> 100 µM	4.53 ± 0.92 µM	7.08 ± 0.3 µM	> 100 µM	> 100 µM	44.7 ± 20 µM	> 100 µM	> 100 µM	effect on TNF-α compared with positive drugs (TNF-α): greater effect on TNF-α than positive drugs
O=c1cc(-c2ccc(O)c(O)c2)oc2c([C@@H]3O[C@H](CO)[C@@H](O)[C@H](O)[C@H]3O)c(O)cc(O)c12 [Orientin]	significantly less TNF-α									IC50 [1, 12]: 53.7 ± 9.98 µM
CCOC(=O)C1=C[C@@H](OC(CC)CC)[C@H](NC(C)=O)[C@@H](N)C1 [Oseltamivir, oseltamivir phosphate, reference compound]		83.4 ± 15.6 µM	74.9 ± 20.7 µM	4.45 ± 0.24 µM	11.4 ± 7.44 µM	77.9 ± 22.1 µM	6.25 ± 2.6 µM	8.47 ± 1.73 µM	54.5 ± 14.2 µM	IC50 [2, 13]: < 100 µM; IC50 [3, 14]: < 100 µM
O=c1c(O)c(-c2ccc(O)c(O)c2)oc2cc(O)cc(O)c12 [Quercetin]		> 100 µM	8.59 ± 1.34 µM	5.41 ± 0.14 µM	> 100 µM	> 100 µM	9.99 ± 2.84 µM	18.3 ± 3.52 µM	> 100 µM	
NC(=O)c1ncn([C@@H]2O[C@H](CO)[C@@H](O)[C@H]2O)n1 [Ribavirin, ribavirin, reference compound]		16.1 ± 1.47 µM	10.4 ± 2.19 µM	16.4 ± 2.95 µM	47.5 ± 7.94 µM	22.5 ± 6.16 µM	9.18 ± 0.99 µM	21.7 ± 0.97 µM	62.5 ± 16.2 µM	IC50 [2, 13]: < 100 µM; IC50 [3, 14]: < 100 µM
O=C1c2ccccc2-n2c1nc1ccccc1c2=O [Tryptanthrin]	except tryptanthrin, were associated with significantly less TNF-α	> 100 µM	72 ± 23.6 µM	> 100 µM	> 100 µM	> 100 µM	17.7 ± 1.74 µM	31.8 ± 11.6 µM	76.3 ± 3.4 µM	
O=C(/C=C/c1ccc(O)cc1)c1ccc(O)cc1O [isoliquiritigenin]	significantly less TNF-α									effect on TNF-α compared with positive drugs (TNF-α): greater effect on TNF-α than positive drugs
COc1ccc(-c2cc(=O)c3c(O)cc(O[C@@H]4O[C@H](CO[C@@H]5O[C@@H](C)[C@H](O)[C@@H](O)[C@H]5O)[C@@H](O)[C@H](O)[C@H]4O)cc3o2)cc1 [linarin]	significantly less TNF-α									
COc1ccc(-c2cc(=O)c3c(OC)c(OC)c(OC)cc3o2)cc1OC [sinensetin]	significantly less TNF-α									
cedar acid	significantly less TNF-α									
